The results in this text go back to ChEMBL document CHEMBL5143649, “Broad-spectrum cyclic boronate β-lactamase inhibitors featuring an intramolecular prodrug for oral bioavailability” (Bioorg Med Chem, 2022).

Series [1] deals with Klebsiella pneumoniae. Briefly: Potentiation of aztreonam-induced antibacterial activity against Klebsiella pneumoniae 1004 producing KPC assessed as concentration required to reduce aztreonam MIC to 4 ug/ml by CLSI based broth microdilution method. In kind it is functional. (In broth dilution the organism is exposed to a series of concentrations in liquid medium.)
The test system of series [2] is Klebsiella pneumoniae. Briefly: Potentiation of aztreonam-induced antibacterial activity against Klebsiella pneumoniae 1009 producing class A CTX-M-14 assessed as concentration required to reduce aztreonam MIC to 4 ug/ml by CLSI based broth microdilution method. The series is classed as functional.
The subject of series [3] is Escherichia coli. The series can be described thus: Potentiation of aztreonam-induced antibacterial activity against Escherichia coli 308 producing SHV-5 assessed as concentration required to reduce aztreonam MIC to 4 ug/ml by CLSI based broth microdilution method. In kind it is functional.
Series [4] deals with Escherichia coli. The series can be described thus: Potentiation of aztreonam-induced antibacterial activity against Escherichia coli 1010 producing CMY-6 assessed as concentration required to reduce aztreonam MIC to 4 ug/ml by CLSI based broth microdilution method. In kind it is functional.
The subject of series [5] is Escherichia coli. Briefly: Potentiation of aztreonam-induced antibacterial activity against Escherichia coli 302 producing TEM-10 assessed as concentration required to reduce aztreonam MIC to 4 ug/ml by CLSI based broth microdilution method. In kind it is functional.
Series [6] has as its system Enterobacter cloacae. Briefly: Potentiation of aztreonam-induced antibacterial activity against Enterobacter cloacae 1002 producing AmpC assessed as concentration required to reduce aztreonam MIC to 4 ug/ml by CLSI based broth microdilution method. In kind it is functional.
A short description of series [7]: Oral bioavailability in rat. Particulars: in vivo. In kind it is ADME, organism-based.
Series [8] is described as follows: AUC in rat at 30 mg/kg administered as iv infusion for 0.5 hrs and measured upto 24 hrs by HPLC-MS analysis. In kind it is ADME, organism-based. Further details: time < 24.5 hrs, dose 30 mg/kg, route iv. Particulars: in vivo.
The nature of series [9]: AUC in rat at 100 mg/kg administered as iv infusion for 0.5 hrs and measured upto 24 hrs by HPLC-MS analysis. In kind it is ADME, organism-based. More on the design: dose 100 mg/kg, time < 24.5 hrs, route iv. The note with it: in vivo.
The nature of series [10]: Oral bioavailability in rat at 30 mg/kg measured upto 24 hrs by HPLC-MS analysis. The note with it: in vivo. The series is classed as ADME, organism-based.
A short description of series [11]: AUC in rat at 300 mg/kg administered as iv infusion for 0.5 hrs and measured upto 24 hrs by HPLC-MS analysis. The series is classed as ADME, organism-based. More on the design: time < 24.5 hrs, dose 300 mg/kg, route iv. The note with it: in vivo.
Series [12] in a line: AUC in rat at 30 mg/kg, po measured upto 24 hrs by HPLC-MS analysis. Further details: dose 30 mg/kg, time < 24 hrs, route po. Particulars: in vivo. In kind it is ADME, organism-based.
Series [13] can be described thus: AUC in rat at 300 mg/kg, po measured upto 24 hrs by HPLC-MS analysis. More on the design: dose 300 mg/kg, time < 24 hrs, route po. Particulars: in vivo. The series is classed as ADME, organism-based.
A short description of series [14]: Oral bioavailability in rat at 100 mg/kg measured upto 24 hrs by HPLC-MS analysis. In kind it is ADME, organism-based. Particulars: in vivo.
Series [15] in a line: Oral bioavailability in rat at 300 mg/kg measured upto 24 hrs by HPLC-MS analysis. In kind it is ADME, organism-based. Particulars: in vivo.
Series [16] in a line: AUC in rat at 100 mg/kg, po measured upto 24 hrs by HPLC-MS analysis. In kind it is ADME, organism-based. More on the design: time < 24 hrs, dose 100 mg/kg, route po. Particulars: in vivo.
Series [17] relates to Klebsiella pneumoniae. The series can be described thus: microbe, parasite or virus in culture. Particulars: 1009.
For series [18], the system named is Escherichia coli. The series can be described thus: microbe, parasite or virus in culture. The note with it: 1010.
The test system of series [19] is Escherichia coli. Briefly: microbe, parasite or virus in culture. The note with it: 302.
Series [20] deals with Klebsiella pneumoniae. Briefly: microbe, parasite or virus in culture. The note with it: 1004.
Series [21] has as its system Escherichia coli. The series can be described thus: microbe, parasite or virus in culture. Particulars: 308.

Each structure is given as a SMILES string.

For `O=C(O)C[C@H]1C=CC[C@H](NC(=O)Cc2cccs2)B(O)O1`, the EC in series [1] stood at 10 µg/mL; in series [2] it was 5 µg/mL; in [3], 1.25 µg/mL; in series [4], 10 µg/mL; in [5] it was 5 µg/mL; in [6], 2.5 µg/mL.
For the compound `O=C(O)CC1C=CC[C@H](NC(=O)Cc2cccs2)B(O)O1` (stereo partly drawn), the EC in [1] was 20 µg/mL; in [2], 10 µg/mL; in series [3], 2.5 µg/mL; in [4], 20 µg/mL; in [5], 10 µg/mL; in series [6], 10 µg/mL.
For the compound `O=C(Cc1cccs1)N[C@H]1CC=C[C@@H]2CC(=O)OB1O2`, in [7], the bioavailability – broadly, dose-corrected exposure relative to a reference, in per cent – turned out to be 48%.
`Nc1nnc(SCC(=O)N[C@H]2CC=C[C@H](CC(=O)O)OB2O)s1`: the EC in series [1] came to 5 µg/mL; in series [2], 2.5 µg/mL; in series [3], 1.25 µg/mL; in series [4], 1.25 µg/mL; in [5], 5 µg/mL; in series [6], 0.6 µg/mL.
`COC(=O)N1CC(CC(=O)O)OB(O)[C@@H](NC(=O)Cc2cccs2)C1` (stereo partly drawn): the EC in series [1] was 40 µg/mL; in series [2], 10 µg/mL; in series [3] it was 2.5 µg/mL; in series [4] it was 20 µg/mL; in series [5], 20 µg/mL.
On to `O=C(O)CC1CCC[C@H](NC(=O)Cc2cccs2)B(O)O1` (stereo partly drawn), for which the EC was 20 µg/mL in series [1]; 10 µg/mL in series [2]; 10 µg/mL in series [3]; 10 µg/mL in series [4]; over 40 µg/mL in series [5]; 10 µg/mL in series [6].
On to `O=C(O)C[C@@H]1C=CC[C@H](NC(=O)Cc2cccs2)B(O)O1`, for which the EC in series [1] was 40 µg/mL; in series [2], 20 µg/mL; in series [3], 10 µg/mL; in [4], 40 µg/mL; in series [5] it was over 40 µg/mL; in [6], 10 µg/mL.
Turning to `CSCC(=O)N[C@H]1CC=C[C@H](CC(=O)O)OB1O`, the EC in [1] came to 10 µg/mL; in series [2], 2.5 µg/mL; in series [3], 1.25 µg/mL; in series [4] it was 5 µg/mL; in [5], 5 µg/mL; in series [6] it was 1.25 µg/mL.
Regarding `CC(=O)N1CC(CC(=O)O)OB(O)[C@@H](NC(=O)Cc2cccs2)C1` (stereo partly drawn), the EC in series [1] turned out to be 40 µg/mL; in [2], 5 µg/mL; in series [3] it was 1.25 µg/mL; in [4], 10 µg/mL; in series [5] it was 20 µg/mL; in series [6] it was 20 µg/mL.
With `CSCC(=O)N[C@H]1CC=C[C@H](CC(=O)[O-])OB1O.[Na+]`, the results for the AUC at 24.5 h in series [8], in series [9] and in [11] were 28100 ng·h/mL, 79400 ng·h/mL and 276000 ng·h/mL, respectively. The bioavailability in series [10] was determined as 9.3%. For the same compound, in series [12], the AUC – broadly, concentration integrated over time – at 24 h came to 2600 ng·h/mL.
On to `O=C(O)C[C@H]1C=CC[C@H](NC(=O)c2cccnc2)B(O)O1`, for which the EC was 10 µg/mL in series [1]; 5 µg/mL in series [2]; 2.5 µg/mL in series [3]; 1.25 µg/mL in series [4]; 1.25 µg/mL in [5]; 1.25 µg/mL in series [6].
For the compound `CSCC(=O)N[C@H]1CC=C[C@@H]2CC(=O)OB1O2`, the bioavailability was found to be 52% in [10], 69.3% in series [14] and 64.9% in series [15]. For the same compound, the AUC at 24 h in series [13] is 179000 ng·h/mL; in [12], 14600 ng·h/mL; in [16], 55000 ng·h/mL.
Consider `O=C(O)CC1COC[C@H](NC(=O)Cc2cccs2)B(O)O1` (stereo partly drawn), for which the EC was determined as 40 µg/mL in series [1]; 5 µg/mL in series [2]; 5 µg/mL in series [3]; 10 µg/mL in series [4]; 20 µg/mL in series [5]; 10 µg/mL in series [6].
Turning to `C[C@H]1[C@H](NC(=O)/C(=N\OC(C)(C)C(=O)O)c2csc(N)n2)C(=O)N1S(=O)(=O)O` [AZTREONAM], the MIC in series [17], in series [18], in series [19], in [20] and in series [21] was over 64 µg/mL throughout.
Regarding `O=C(O)C[C@@H]1CC[C@H](NC(=O)Cc2cccs2)B(O)O1` [VABORBACTAM], the bioavailability in series [7] was under 10%. The EC was 1.25 µg/mL in [1]; over 40 µg/mL in [2]; over 40 µg/mL in series [3]; 20 µg/mL in [4]; over 40 µg/mL in series [5]; 20 µg/mL in series [6].
